Experiments:
NFATc1 = NFATc1 nuclear translocation by immunoblotting of nuclear fractions; format: cell-based, C57/BL6 mice
Method: FIG. 4A, purified T cells pre-treated with 2ME2 (50 μM) were stimulated with PMA/iono for the indicated times. Whole cell lysates were subjected to immunoblotting to detect the indicated proteins. FIG. 4B, nuclear lysates were analyzed by EMSA to detect DNA binding to NF-κB or AP-1. FP, free probe. FIG. 4C, purified T cells or B cells were pre-treated with vehicle (−) or 50 μM 2ME2 (+) and were stimulated with PMA/iono for 30 or 60 minutes (left), or with anti-CD3/28 or anti-IgM/CD40 for 24 hours (right). Nuclear fractions of lymphocytes were analyzed by immunoblotting to detect nuclear translocation of NFATc1. Lamin A, nuclear protein loading control. NS; non-specific band. For FIGS. 4A-4C, data are representative of at least two independent experiments. FIG. 4D, stably transfected NFAT and NF-κB Jurkat luciferase reporter cell lines were preincubated with 2ME2 for 30 minutes, and stimulated via crosslinking of anti-CD3/28 antibodies with goat anti-mouse antibodies (GaM). 5 hours later, secreted luciferase activity indicates relative transcriptional activity. Data is reported as normalized luciferase activity and is representative of 3 independent experiments.
T or B cells pre-incubated with vehicle or 2ME2 (50 μM) were stimulated with PMA (10 ng/ml)+iono (50 ng/ml); plate-bound anti-CD3 (30 ng/ml)+anti-CD28 (100 ng/ml); or anti-IgM (1 μg/ml)+anti-CD40 (1 μg/ml). Nuclear extracts (5 μg protein) were immunoblotted with anti-NFATc1 (clone 7A6, Santa Cruz) and anti-Lamin A (clone H-102, Santa Cruz).

[1] = tested on: LPS-induced TNFα production; assay: Serum TNFα in mice injected with LPS; format: in vivo; settings: 2ME2-pretreated mice injected with LPS
NFAT = assay: Gaussia luciferase reporter assay in Jurkat cells; format: cell-based; settings: anti-CD3/28, 5 hours
Method: FIG. 4A, purified T cells pre-treated with 2ME2 (50 μM) were stimulated with PMA/iono for the indicated times. Whole cell lysates were subjected to immunoblotting to detect the indicated proteins. FIG. 4B, nuclear lysates were analyzed by EMSA to detect DNA binding to NF-κB or AP-1. FP, free probe. FIG. 4C, purified T cells or B cells were pre-treated with vehicle (−) or 50 μM 2ME2 (+) and were stimulated with PMA/iono for 30 or 60 minutes (left), or with anti-CD3/28 or anti-IgM/CD40 for 24 hours (right). Nuclear fractions of lymphocytes were analyzed by immunoblotting to detect nuclear translocation of NFATc1. Lamin A, nuclear protein loading control. NS; non-specific band. […]
Luciferase Assays were performed using Jurkat cells harboring a stably integrated Gaussia-luciferase reporter gene under the control of NF-κB or NFAT binding sites (Termed NFAT/NF-κB-GLuc reporter Jurkat). Gaussia luciferase contains a secretion peptide sequence mediating quantitative secretion of active enzyme into the surrounding medium. […] Luciferase activity was measured in 96-well plates using a Orion L microplate Luminometer (Berthold Detection Systems) with an integration time of 3.0 seconds. In parallel, cell viability was determined using the CellTiter-Glo® Luminescent Cell Viability Assay (Promega) and normalized Gluc activity was calculated as the ratio between Gluc activity and cell viability counts.

purified CD4^+ T cells = assay: Proliferation of purified CD4+ T cells by 3H-thymidine incorporation; format: cell-based, C57/BL6 mice; settings: 24 hours or 48 hours post-stimulation
Method: (§1) FIGS. 2A-2E, show proliferation and activation of T cells are inhibited by 2ME2. FIG. 2A, CD4^+ T cells were pre-treated with the indicated concentrations of 2ME2 and stimulated with plate-bound anti-CD3/28 or PMA/iono. Proliferation was assayed 24 hours (left) or 48 hours (right) later by 3H-thymidine incorporation. FIG. 2B, CD4^+ and CD8^+ T cells were stimulated with anti-CD3/28 in the presence of increasing concentrations of 2ME2. CD25 expression was assessed at 6 hours or 24 hours post-stimulation by flow cytometry. FIG. 2C, Quantification of CD25 expression in purified CD4^+ T cells pre-treated with increasing concentrations of 2ME2, and stimulated with anti CD3/28 or PMA/iono for 6 or 24 hours. […] Viability was determined 24 hours or 48 hours post-stimulation by flow cytometry. […] Proliferation was determined 24 hours or 48 hours later by 3H-thymidine incorporation. […]
(§2) Purified CD4^+ T cells were stimulated with plate-bound anti-CD3 (clone 2C11, BD, 10 ng/ml) plus anti-CD28 (clone 37.51, BD, 100 ng/ml). […] CD25 and CD69 expression was determined by flow cytometry (FACSCanto II, BD) and analyzed using FloJo software (Treestar Inc). Proliferation was assessed by 3H-thymidine incorporation. Viability and upregulation of cell surface markers on activated T cells were assessed by flow cytometry using Annexin V and propridium iodide. […]

T cells = assay: T cell activation markers CD25 and CD69 by flow cytometry; format: cell-based, C57/BL6 mice; settings: anti-CD3/28 or PMA/iono
Method: as §1, §2

activated B cells = assay: B cell activation markers CD25 and CD69; format: cell-based, C57/BL6 mice
Method: Cells were pre-incubated with various concentrations of 2ME2 (Entremed) or vehicle (DMSO) for 30 minutes at 37° C.
(§3) Purified CD4^+ T cells were stimulated with plate-bound anti-CD3 (clone 2C11, BD, 10 ng/ml) plus anti-CD28 (clone 37.51, BD, 100 ng/ml). Purified B220+ B cells were stimulated with anti-IgM (Jackson, 5 μg/ml), anti-CD40 (clone 3/20, BD, 5 μg/ml) or LPS (Sigma, 20 μg/ml) for the times indicated in FIG. 3. CD25 and CD69 expression was determined by flow cytometry (FACSCanto II, BD) and analyzed using FloJo software (Treestar Inc). Proliferation was assessed by 3H-thymidine incorporation. Viability and upregulation of cell surface markers on activated T cells were assessed by flow cytometry using Annexin V and propridium iodide. Human Peripheral blood mononuclear cells (PBMC) were isolated using Mono-Poly Resolving Medium (MP Biomedical) according to the manufacturer's protocols and activated with anti-CD3 (clone UCHT1) and anti-CD28 (clone CD28.2).

ERβ = ERβ (Homo sapiens, UniProt Q92731); settings: cited from earlier work
Sequence of ERβ (Q92731 whole entry, species assumed): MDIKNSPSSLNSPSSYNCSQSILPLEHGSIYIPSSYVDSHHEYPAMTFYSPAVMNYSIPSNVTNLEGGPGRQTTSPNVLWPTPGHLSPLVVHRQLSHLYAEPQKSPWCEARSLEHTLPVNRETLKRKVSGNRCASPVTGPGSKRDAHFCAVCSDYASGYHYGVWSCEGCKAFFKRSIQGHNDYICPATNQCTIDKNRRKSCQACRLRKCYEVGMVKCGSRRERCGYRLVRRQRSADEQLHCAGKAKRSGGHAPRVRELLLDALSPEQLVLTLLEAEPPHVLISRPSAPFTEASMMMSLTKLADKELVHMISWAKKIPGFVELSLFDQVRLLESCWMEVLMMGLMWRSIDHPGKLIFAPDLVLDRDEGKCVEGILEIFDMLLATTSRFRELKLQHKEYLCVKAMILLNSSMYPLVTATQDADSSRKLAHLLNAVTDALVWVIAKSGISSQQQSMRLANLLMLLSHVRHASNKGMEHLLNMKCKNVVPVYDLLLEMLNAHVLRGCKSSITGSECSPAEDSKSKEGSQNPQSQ

activated T cells = assay: Quantitative real time PCR of mRNAs in activated T cells; format: cell-based, C57/BL6 mice
human PBL [2] = assay: Proliferation of human PBMC/PBL activated with anti-CD3/28 (3H-thymidine); format: cell-based; settings: anti-CD3/28 antibodies, 24 or 48 hours
Method: as §1, §2

human PBL [3] = assay: CD25 expression and cytokine production by CD3/28-stimulated human PBL; format: cell-based
Method: as §3

[4] = tested on: SEB-induced cytokine production; design: species or system C57/BL6 mice; settings: mouse, in vivo

## COc1cc2c(cc1O)CC[C@@H]1[C@@H]2CC[C@]2(C)[C@@H](O)CC[C@@H]12 [2ME2, 2-Methoxyestradiol]
NFATc1; 50 μM 2ME2, 30-60 minutes after PMA/iono stimulation
  NFATc1 in the nuclear fraction of T cells: reduce the amount of NFATc1 present in the nuclear fraction
NFATc1; 50 μM 2ME2, 24 hours after anti-CD3/28 stimulation
  NFATc1 in the nuclear fraction of T cells: reduce the amount of NFATc1 present in the nuclear fraction
NFATc1; 50 μM 2ME2, 24 hours after anti-IgM/CD40-stimulation
  NFATc1 in the nuclear fraction of B cells: reduce the amount of NFATc1 present in the nuclear fraction
[1]
  serum TNFα levels: no reduction
NFAT
  transcriptional activation of NFAT via TCR ligation (normalized luciferase activity): dramatically inhibited
Purified CD4^+ T cells
  anti-CD3/28 or PMA+iono-dependent proliferation: dose-dependent inhibition
T cells
  up-regulation of CD25: blocked up-regulation
  up-regulation of CD69: blocked up-regulation
Activated B cells
  up-regulation of CD25 in activated B cells: prevented
  up-regulation of CD69 in activated B cells: prevented
ERβ
  lower affinity than estradiol for ERβ: 3200 fold
Activated T cells; 2ME2 50 μM, anti-CD3/28
  induction of CD25 mRNA: decreased the induction
  induction of CD44 mRNA: decreased the induction
  induction of IFNγ mRNA: decreased the induction
  induction of IL-2 mRNA: decreased the induction
  induction of TNFα mRNA: decreased the induction
Activated T cells; 3 hours post stimulation
  mRNA levels of GATA3: normal induction
Activated T cells; after 3 hours and 24 hours anti-CD3/28 stimulation
  up-regulation of IL-17 mRNA: blocking up-regulation
Activated T cells; in response to TCR ligation
  upregulation of IL-4 mRNA: inhibited
Activated T cells; re-stimulation after 5 days activation
  IL-17 production on re-stimulation: blocked
Human PBL [2]
  proliferation of human PBL: inhibited in a dose-dependent manner
Human PBL [3]; CD3/28-stimulated human PBL
  IFNγ production: inhibited
  IL-2 production: inhibited
  IL-17A production: inhibited
Human PBL [3]; human PBL
  anti-CD3/28-induced expression of CD25 on CD4+ and CD8+ T cells: inhibited
[4]
  serum IL-6: significantly less
  serum TNFα: significantly less

From patent US9132138B2, “Method for the treatment of multiple sclerosis” (CASI Pharmaceuticals, Inc., priority 2012, dated 2015)
